# From publication PMC5817723, “^99mTc-HYNIC-(tricine/EDDA)-FROP peptide for MCF-7 breast tumor targeting and imaging” (Journal of Biomedical Science, 2018)
# Entries after “also recorded” stand apart in the source; their conditions may differ. Residues, ends and D or L forms follow the SMILES beside them. *: point of attachment. HYNIC = NNc1ccc(C(=O)*)cn1
# Experiments:
# MCF-7 cells [1] = assay: Internalization study in MCF-7 cells; type: cell-based, human; conditions: MCF-7, 40 nM, acid wash urea buffer pH 2.5
# Procedure: For internalization experiment, MCF-7 cells (1 × 10^6 cells) were seeded on the single plates and incubated with ^99mTc-HYNIC-FROP (40 nM) at 4 °C. After 1 h incubation, medium was removed and cells were washed with ice-cold serum free medium. Then 1 mL complete medium was added to each dish and cells were further incubated for 0.5, 1, 2, 6 and 24 h at 37 °C. After incubation, medium was removed from cellular plate and then was washed once with cold serum free medium. Then supernatant was collected, and for removing radioactivity bound to the surface of the cells, the acid wash with urea buffer (pH 2.5) was used. The internalized radiolabeled peptide was recovered by solubilizing the cells with 1 M NaOH at 37 °C for 5 min, and the surface-bound (acid-wash) and internalized (acid-resistant) radioactivity were measured with the gamma counter.
# [2] = In vitro stability in normal saline at room temperature; type: physicochemical; conditions: TLC, n = 3
# Procedure: The radiochemical purity was determined by instant thin layer chromatography (ITLC) in different mobile phases such as methyl ethyl ketone (MEK), acetonitrile/water (50/50) and citrate solvent (0.1 M, pH 5.2) using a Lablogic mini scan TLC scanner (Sheffield, UK) and Laura image analysis software. In MEK, free ^99mTcO4^− migrated with the solvent front, while radiolabeled peptide remained at the application point. In the acetonitrile/water system, the colloids remained at the application point, while radiolabeled peptide migrated in front of solvent. The amount of labeled co-ligand was determined by citrate solvent, that free ^99mTcO4 Na and labeled co-ligand migrate in front of solvent while both RHT and labeled peptide (^99mTc-FROP) remind at the origin. A NaI (Tl) gamma detector (Delshid, Tehran, Iran) was used to for measurement of radioactivity.
# (§1) The stability of ^99mTc-HYNIC-FROP in normal saline was evaluated using ITLC at various times (2, 4, 6 and 24 h) at room temperature. For serum stability, ^99mTc-HYNIC-FROP (30 μL) was incubated with freshly human plasma serum (90 μL) in triplicate at 37 °C. At 1 h of incubation, the plasma proteins were precipitated with a mixture of acetonitrile/ethanol (1:1 v/v) and centrifugation. The supernatant layer was filtered through a 0.22 μm filter and then the fraction was analyzed by RP-HPLC. Partition coefficient of ^99mTc-HYNIC-FROP was determined via method that previously was described.
# MCF-7 cells [3] = assay: Saturation binding assay on MCF-7 cells; design: species or system human; conditions: saturation 30–250 nM, 30 min, nonlinear regression
# Procedure: The cell-binding affinity of ^99mTc-HYNIC-FROP was assessed with saturation method. For determining of […] (Kd) and total number of binding sites (Bmax), ^99mTc-HYNIC-FROP was prepared in high radiochemical purity. MCF-7 cells were seeded into 24-well plates and incubated overnight. Then cells were incubated with various concentrations of radiolabeled peptide (30–250 nM) for 30 min. One dish was added blocking solution containing of 500-fold excess of highest concentration of ^99mTc-HYNIC-FROP. The cells were then washed with cold serum free medium to remove free radioactivity. The cells with bound radioactivity detached with trypsin and collected and radioactivity was measured. The (Kd) and (Bmax) value were calculated using Graphpad prism software based on specific binding of ^99mTc-HYNIC-FROP on MCF-7 cells.
# [4] = Stability in human plasma serum, RP-HPLC; type: in vitro ADME; conditions: 37 °C, triplicate
# Procedure: Reversed phase-HPLC was performed on a Knauer HPLC systems (Knauer HPLC, Berlin, Germany) using a Lablogic radioactivity gamma detector with a Eurospher 100–5 C-18, 4.6 × 250 mm (Knauer, Berlin, Germany) column with a pre-column. (Knauer HPLC, Berlin, Germany) HPLC was run using a gradient of 0.1% TFA in H2O (solvent A) and 0.1% TFA in CH3CN (solvent B) at a flow rate of 1 mL/min. A gradient with solvents A and B was run as follows: 0 min, 10% B; 0–10 min, 10–30% B; 10–20 min, 30–80% B; and 20–25 min, 80–100% B, for a total time of 30 min.
# as §1
# [5] = system: MCF-7 tumor bearing mouse; assay: Planar gamma camera tumor imaging; type: in vivo; conditions: MCF-7 xenograft nude mouse, i.v., 15 min p.i.
# Procedure: For gamma camera imaging, MCF-7 tumor bearing mouse was intravenously injected through the tail with ^99mTc-HYNIC-FROP. After 15 min p.i. the mouse immediately was anesthetized using ketamine/xylazine and whole-body dynamic imaging was conducted. The imaging was performed at the department of radiology at Mazandaran Hospital by a dual-head e.cam gamma camera (Siemens Medical Systems, Inc.), equipped with a low-energy, high-resolution collimator. The evaluation of the image was performed using an e-soft (Siemens Medical Systems).
# [6] = system: MCF-7, A-549 SKOV-3, PC-3, T47D and HFFF2 cell lines; assay: Cellular uptake on different cell lines; type: cell-based, human; conditions: 40 nM, 37 °C, 1 h
# Procedure: The cellular uptake studies of ^99mTc-HYNIC-(tricine/EDDA)-FROP were performed on MCF-7, A-549 SKOV-3, PC-3, T47D and HFFF2 cell lines. The cells (5 × 10^5) were seeded in 12-well plates overnight and incubated with ^99mTc-HYNIC-FROP (40 nM) at 37 °C for 1 h. Incubation of the samples was terminated by removing medium and washing with cold serum-free medium. Thereafter, the cells were detached by trypsin and the radioactivity in the cell suspension was quantified.
# [7] = listed as 99mTc-HYNIC-(tricine/EDDA)-FROP
# [8] = 5 × 10^5 cells, cell-associated radioactivity
compound,measurement,setting,value
"CSCC[C@H](NC(=O)[C@H](CC(C)C)NC(=O)[C@H](CCC(=O)O)NC(=O)[C@H](Cc1ccc(O)cc1)NC(=O)[C@H](CC(=O)O)NC(=O)[C@@H](N)CCC(=O)O)C(=O)N[C@@H](CC(=O)O)C(=O)N[C@@H](CC(C)C)C(=O)N[C@@H](CC(C)C)C(=O)N[C@@H](C)C(=O)N[C@@H](Cc1ccc(O)cc1)C(=O)N[C@@H](CC(C)C)C(=O)N[C@@H](CCCCNC(=O)c1ccc(NN)nc1)C(=O)O [^99mTc-HYNIC-FROP, metal not drawn] (H-EDYELMDLLAYLK(HYNIC)-OH)","internalized radiolabeled peptide, % of the total radioactivity in the cells",MCF-7 cells [1]; 1 h at 4 °C then 30 min at 37 °C,10.6 ± 0.8%
same,"internalized radiolabeled peptide, % of the total radioactivity in the cells",MCF-7 cells [1]; 1 h at 4 °C then 6 h at 37 °C,18.3 ± 2.3%
same,%RCP in normal saline,[2]; 2 h,99.5 ± 0.4%
same,%RCP in normal saline,[2]; 4 h,99.1 ± 0.9%
same,%RCP in normal saline,[2]; 6 h,99 ± 0.8%
same,%RCP in normal saline,[2]; 24 h,94.6 ± 2.7%
same,Bmax (maximum number of binding sites),MCF-7 cells [3]; listed as 99mTc-HYNIC-(tricine-EDDA)-Lys-FROP,4.5 ± 0.6 × 10^7 CPM/pMol
same,Bmax (maximum number of binding sites),MCF-7 cells [3]; [7],(4.5±0.6)·10^7 CPM/pMol
same,stability in human plasma serum,"[4]; 30 μL in 90 μL fresh human plasma serum, 1 h, RP-HPLC radiodetection",stable; also recorded: the major radioactivity was still associated with ^99mTc-FROP
same,remaining at 1 h,"[4]; abstract statement, human plasma serum, protein precipitation acetonitrile/ethanol 1:1, RP-HPLC",~98%
same,tumor visualization by planar gamma imaging,[5],tumor was clearly visualized
same,tumor visualization by planar gamma imaging,[5]; [7],tumor was clearly visible
same,MCF-7/A-549 ratio of uptake,[6]; [8],8.2
same,MCF-7/PC-3 ratio of uptake,[6]; [8],2.3
same,MCF-7/SKOV-3 ratio of uptake,[6]; [8],8.8
same,MCF-7/T47D ratio of uptake,[6]; [8],4.5
same,MCF-7/HFFF2 ratio of uptake,[6]; HFFF2 = normal human fibroblast,9.7
